Assay results reported in patent US9096598B2 (Merck Sharp & Dohme Corp., priority 2011, dated 2015).

Key:
JAK3 = target: T1, JAK3 (Homo sapiens, UniProt P52333); assay: Jak Biochemical HTRF Assay (JAK3); conditions: recombinant purified GST-tagged catalytic domain, [ATP] 2.9 μM, values given as range classes
T1 construct: recombinant purified GST-tagged catalytic domain for each enzyme; purchased Invitrogen M4290
Procedure, shortened: (§1)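 GST-tagged recombinant catalytic domain and biotinylated peptide substrate were preincubated with compound for 30 min at room temperature in kinase buffer with 2 mM DTT and 0.05% BSA. ATP then started a 120 min reaction. Phosphopeptide was detected by HTRF (Eu-pY20/streptavidin-Dylight 650, 665/615 nm ratio), and IC50 came from a 4-parameter fit of percent inhibition.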

JAK2 = target: T2, JAK2 (Homo sapiens, UniProt O60674); assay: Jak Biochemical HTRF Assay (JAK2); conditions: recombinant purified GST-tagged catalytic domain, [ATP] 8.5 μM, values given as range classes
T2 construct: recombinant purified GST-tagged catalytic domain for each enzyme; purchased Invitrogen M4290
T2 sequence (O60674 849-1124 limits assumed): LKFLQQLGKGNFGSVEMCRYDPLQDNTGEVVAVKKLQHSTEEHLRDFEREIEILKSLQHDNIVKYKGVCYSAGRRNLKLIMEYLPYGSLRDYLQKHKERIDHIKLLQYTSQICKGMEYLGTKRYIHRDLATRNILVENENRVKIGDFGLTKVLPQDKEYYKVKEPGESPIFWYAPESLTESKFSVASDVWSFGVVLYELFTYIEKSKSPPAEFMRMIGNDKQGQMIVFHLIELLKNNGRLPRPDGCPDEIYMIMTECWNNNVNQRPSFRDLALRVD
Procedure, shortened: as §1

T1 sequence (P52333 822-1111 limits assumed): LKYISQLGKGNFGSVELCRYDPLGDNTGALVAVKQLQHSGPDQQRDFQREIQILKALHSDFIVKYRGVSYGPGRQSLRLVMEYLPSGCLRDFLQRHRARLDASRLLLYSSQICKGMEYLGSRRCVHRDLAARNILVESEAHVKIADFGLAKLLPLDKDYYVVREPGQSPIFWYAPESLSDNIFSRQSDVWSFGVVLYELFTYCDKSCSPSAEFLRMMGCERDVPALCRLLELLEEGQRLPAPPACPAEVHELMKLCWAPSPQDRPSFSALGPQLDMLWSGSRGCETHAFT

IC50 (JAK3)	IC50 (JAK2)	Structure (SMILES)
≤ 10 nM	10 to 500 nM	C[C@@H](Nc1cncc(-c2c[nH]c3ncc(C#N)cc23)c1)C(=O)NCC(F)(F)F [Example 1-32, N~2~-[5-(5-cyano-1H-pyrrolo[2,3-b]pyridin-3-yl)pyridin-3-yl]-N-(2,2,2-trifluoroethyl)-D-alaninamide]
≤ 10 nM	10 to 500 nM	CC(C)NC(=O)Nc1cnc2[nH]cc(-c3cncc(N[C@H](C(=O)NCC(F)(F)F)C(C)C)c3)c2c1 [Example 6-1, N^2-(5-{5-[(propan-2-ylcarbamoyl)amino]-1H-pyrrolo[2,3-b]pyridin-3-yl}pyridin-3-yl)-N-(2,2,2-trifluoroethyl)valinamide]
≤ 10 nM	10 to 500 nM	C[C@@H](Nc1cnnc(-c2c[nH]c3ncc(C(N)=O)cc23)n1)C(=O)NCC(F)(F)F [Example 1-14, 3-[5-({(1R)-1-methyl-2-oxo-2-[(2,2,2-trifluoroethyl)amino]ethyl}amino)-1,2,4-triazin-3-yl]-1H-pyrrolo[2,3-b]pyridine-5-carboxamide]
